Data on 30 molecules can be found in US5462941A, “3,6-disubstituted pyradazine derivatives” (Mitsubishi Chemical Corporation, priority 1991, dated 1995).

Test [1] deals with Myocardial Infarction of a Rat. Put plainly: Effect on myocardial infarction of a rat induced by ligation of the left coronary artery. Type of test: in vivo, rat (male SD). Particulars: oral, 60 minutes before ligation. The method, then:
Effects of 3,6-Disubstituted Pyridazine Derivatives on the Myocardial Infarction of a Rat Induced by the Ligation of the Left Coronary Artery
A rat group consisting of 8 male SD rats each weighing 200 to 250 g was tested. Myocardial infarction was produced in accordance with a method of Selye et al. That is, each rat was fixed on an operating boar on its back, and an about 1.5 cm incision had been made through the skin along the left sternal border under weak etherization. The pericardium was broken to exteriorize the heart, and the left coronary artery was ligated at a position of 1 to 2 mm apart from the origin thereof with black blade 4-O silk suture (produced by Hama Ika Kogyo). Thereafter, the heart was restored to its original position and the chest was sutured. The air in the throacic cavity was discharged by pressing both side breast portions. After the resumption of respiration, the ST elevation in the standard limb lead II by an electrocardiograph (Model ECG-6601, produced by Nihon Koden Co.,). 24 hours after the ligation, blood was collected from the aortas at the abdomen. A fatal amount of blood was then drawn from each rat. The heart was taken out, and a tissue slice (about 2 mm thick) having an annular cross section was cut from the central portion of the heart. The tissue slice was incubated in 20 ml of 1% TTC (tryphenyl tetrazolium chloride, produced by Wako Pure Chemical Industries Limited) dissolved in 0.09M of phosphoric acid buffer (pH 8.6) at 37° C. for 20 minutes while shielding light. The tissue slice was photographed by a stereoscopic microscope to produce a color slide. The image of the tissue slice was projected on a wall surface from the color slide. The cut surface, the infarcted portion (portion not dyed with TTC) and the non-infarcted portion (portion dyed with TTC) were traced on a sheet, and the area of the infarcted portion in the whole cross section was calculated. The medicine was suspended in an aqueous 1% tragacanth solution and orally administered to each rat 60 minutes before the ligation of the left coronary artery.
The myocardial infarction inhibitory ratio was calculated from the following formula: [formula] A: Infarction degree in the group (controlled group) to which only a solution of 1% tragacanth was administered
B: Infarction degree in the group to which the tragacanth solution containing a medicine was administered

The test system of test [2] is Platelet Agglutination of Rats. Description: Inhibitory effect on collagen-induced platelet agglutination of rats in vitro (platelet rich plasma). In kind it is cell-based. To be noted: rat platelet rich plasma, read-out: in vitro Inhibitory ratio (platelet agglutination); for inhibition at 0.3 µM: 3 × 10^-7 M; for inhibition at 0.1 µM: 10^-7 M; for inhibition at 1 µM: 10^-6 M. The method, then: Inhibitory Effects of 3,6-Disubstituted Pyridazine Derivatives on Platelet Agglutination of Rats […]
Arterial blood of a rat was centrifuged to obtain platelet rich plasma. […] of a medicinal solution was added to 250 μl of the platelet rich plasma, and the mixture was incubated for 2 minutes. Thereafter, 3 μg of collagen (produced by Hormon-Chemie) was added to the mixture as a platelet agglutination inducer, and changes in the platelet agglutination were observed and recorded by a 2-channel platelet agglutination degree measuring instrument (Model DP247E, produced by Sienco) for 10 minutes.
(§1) The platelet agglutination inhibitory ratio was calculated from the following formula:
Inhibitory ratio=(Tc-Ts)/Tc×100
Tc: Agglutination degree when only a solvent was added
Ts: Agglutination degree when a medicinal solution was added

For test [3], the system named is Platelet Agglutination of Rats. Put plainly: Inhibitory effect on collagen-induced platelet agglutination of rats after oral administration (ex vivo). Type of test: in vivo, rat (male Wistar-ST). To be noted: 1 mg/kg p.o., blood collected one hour after; collagen 7 to 10 μg/ml; rat. As for the experimental part: Inhibitory Effects of 3,6-Disubstituted Pyridazine Derivatives on Platelet Agglutination of Rats In Vivo (Oral Administration)
A rat group consisting of 8 male Wistar-ST rats each weighing about 250 g was tested. Each compound was suspended in aqueous 1% tragacanth solution. The thus-prepared suspension was orally administered to each rat at a dose of 4 ml/kg. One hour after, blood was collected from each carotid artery through a cannula into a plastic test tube containing 3.8% sodium citrate in amount corresponding to 1/10 of the volume of the test tube) and the mixture was stirred. Thereafter, the mixture was centrifuged at 200×g rpm for 15 minutes, and the supernatant liquid was taken as platelet rich plasma (PRP). The residue was further centrifuged at 2000×g rpm for 15 minutes, and the supernatant liquid was collected as platelet poor plasma (PPP) and used for measurement of the platelet agglutinating ability. The platelet agglutinating ability was measured by a 2-channel platelet agglutination degree measuring instrument (Model DP247E, produced by Sienco), and recorded by a 2-pen recorder.
Collagen (produced by Hormon-Chemie) having a concentration of 7 to 10 μg/ml was used as a platelet agglutination inducer.
as §1
Inhibitory ratio=(A-B)/A×100 (%)
A: Agglutination degree in the group (controlled group) to which only a solution of 1% tragacanth was administered
B: Agglutination degree in the group to which the tragacanth solution containing a compound was administered

Take `CC(=O)Oc1ccccc1C(=O)O` [Aspirin, reference compound]: in test [1] (100 mg/kg), the “percentage of inhibition (myocardial infarction)” value (shortened to “percentage of inhibition”) came out at 10.7 percentage.
For the molecule `C[C@@H](Nc1nnc(C2CCCCC2)c2ccccc12)c1ccccc1` [Example 1, (R)-1-(α-phenylethylamino)-4-cyclohexylphthalazine], in test [2], the inhibition at 0.3 µM came to 97.1% and the inhibition at 0.1 µM was found to be 89.2%.
The corresponding values for `CCC(Nc1nnc(C2CCCCC2)c2ccccc12)c1ccccc1` (centres unmarked) [Example 2] are 96% and 56%.
For the molecule `c1ccc2c(C3CCCCC3)nnc(NC3CCCCC3)c2c1` [Example 3], in test [2], the inhibition at 0.3 µM is 18.4% and the inhibition at 1 µM is 100%.
With `CC1(C)CC(Nc2nnc(C3CCCCC3)c3ccccc23)CC(C)(C)C1` [Example 5], in test [2], the inhibition at 1 µM was 51.8%.
As to `C[C@@H](Nc1nnc(-c2ccsc2)c2ccccc12)c1ccccc1` [Example 39, (R)-1-(α-phenylethylamino)-4-(3-thienyl) phthalazine], the inhibition at 0.1 µM in test [2] worked out at 94.9%.
Still for that read-out and setting: to `Cc1csc(-c2nnc(N[C@H](C)c3ccccc3)c3ccccc23)c1` [Example 42, (R)-1-(α-phenylethylamino)-4-(4-methyl-2-thienyl)phthalazine] belongs 96.3%; to `C[C@@H](Nc1nnc(-c2ccco2)c2ccccc12)C1CCCCC1` [Example 45, (R)-1-(α-cyclohexylethylamino)-4-(2-furyl)phthalazine], 98.6%.
Take `c1coc(-c2nnc(-n3ccnc3)c3ccccc23)c1` [Example 46, 1-(1-imidazolyl)-4-(2-furyl)phthalazine]: in test [2], the inhibition at 0.3 µM came to 40.6% and the inhibition at 1 µM was 66.5%.
Consider `C[C@@H](Nc1nnc(-c2ccccc2)c2ccccc12)C1CCCCC1` [Example 60, (R)-1-(1-cyclohexylethylamino)-4-phenylphthalazine], for which the inhibition at 0.1 µM in test [2] was 94.3%. For the same molecule, the “ex vivo Inhibitory ratio (platelet agglutination)” value (from here on “ex vivo Inhibitory ratio”) in test [3] was determined as 51.3%. Besides, the “percentage of inhibition” value in test [1] (1 mg/kg) turned out to be 68.5 percentage; in test [1] (3 mg/kg) it was 82.2 percentage.
Consider `C[C@H](Nc1nnc(-c2ccccc2)c2ccccc12)C1CCCCC1` [Example 61], for which, in test [2], the inhibition at 0.3 µM stood at 94.4% and the inhibition at 0.1 µM was 30.2%.
The corresponding values for `C[C@@H](Nc1nnc(-c2cccs2)c2sccc12)c1ccccc1` [Example 69, (R)-4-(1-phenylethylamino)-7-(2-thienyl) thieno[2 3-d]pyridazine] are 95.2% and 50.8%.
`C[C@@H](Nc1nnc(-c2ccccc2)c2sccc12)c1ccccc1` [Example 70]: the inhibition at 0.1 µM in test [2] was determined as 95.2%.
On to `CCC(Nc1nnc(-c2ccccc2)c2sccc12)c1ccccc1` (centres unmarked) [Example 71], for which, in test [2], the inhibition at 0.3 µM is 98.6% and the inhibition at 0.1 µM was 30.7%.
The matching figures for `CC(Nc1nnc(-c2ccccc2)c2sccc12)c1ccccc1Cl` (centres unmarked) [Example 72]: 95.3% and 5.1%.
The corresponding values for `Cc1cccc(C(C)Nc2nnc(-c3ccccc3)c3sccc23)c1` (centres unmarked) [Example 73] are 95.6% and 42.8%.
`COc1ccccc1C(C)Nc1nnc(-c2ccccc2)c2sccc12` (centres unmarked) [Example 74]: in test [2], the inhibition at 0.3 µM came out at 93.5% and the inhibition at 0.1 µM was 73.4%.
Regarding `C[C@@H](Nc1nnc(-c2ccccc2)c2sccc12)C1CCCCC1` [Example 75], the inhibition at 0.1 µM in test [2] came out at 94.5%. The “ex vivo Inhibitory ratio” value in test [3] was 50.2%.
Turning to `Cc1ccccc1-c1nnc(N[C@H](C)c2ccccc2)c2ccsc12` [Example 79], in test [2], the inhibition at 0.3 µM came out at 6.6% and the inhibition at 1 µM was 94.3%.
Regarding `c1ccc(-c2nnc(NC3CCCCC3)c3ccsc23)cc1` [Example 80], the inhibition at 0.1 µM in test [2] was determined as 100%.
`C[C@@H](Nc1nnc(-c2ccccc2)c2ccsc12)c1ccccc1` [Example 82]: the inhibition at 0.1 µM in test [2] was determined as 93.3%. Besides, the “ex vivo Inhibitory ratio” value in test [3] is on record as 37.9%.
Regarding `C[C@H](Nc1nnc(-c2ccccc2)c2ccsc12)c1ccccc1` [Example 83], the inhibition at 0.3 µM in test [2] is 94.3%.
With `CCC(Nc1nnc(-c2ccccc2)c2ccsc12)c1ccccc1` (centres unmarked) [Example 84], in test [2], the inhibition at 0.3 µM turned out to be 24.5% and the inhibition at 1 µM was found to be 61.6%.
As to `CCCCC(Nc1nnc(-c2ccccc2)c2ccsc12)c1ccccc1` (centres unmarked) [Example 85], the inhibition at 1 µM in test [2] is 40.7%.
For the molecule `CC(Nc1nnc(-c2ccccc2)c2ccsc12)c1ccccc1Cl` (centres unmarked) [Example 86], in test [2], the inhibition at 0.3 µM is 78.2% and the inhibition at 1 µM was 90.2%.
For the molecule `Cc1cccc(C(C)Nc2nnc(-c3ccccc3)c3ccsc23)c1` (centres unmarked) [Example 87], in test [2], the inhibition at 1 µM amounted to 18%.
With `COc1ccccc1C(C)Nc1nnc(-c2ccccc2)c2ccsc12` (centres unmarked) [Example 89], in test [2], the inhibition at 0.3 µM is 49.5% and the inhibition at 1 µM stood at 95.4%.
For the molecule `C[C@@H](Nc1nnc(-c2ccccc2)c2ccsc12)C1CCCCC1` [Example 90], in test [2], the inhibition at 0.3 µM stood at 94.4% and the inhibition at 0.1 µM is 32.7%. Further, the “ex vivo Inhibitory ratio” value in test [3] is listed as 60.6%.
The matching figures for `C[C@@H](Nc1nnc(-c2ccccc2)c2occc12)C1CCCCC1` [Example 95, (R)-4-(1-cyclohexylethylamino)-7-phenyl-furano[2,3-d]pyridazine]: 100%, 94.4% and 63.1%.
In the case of `Clc1ccccc1CN1CCc2sccc2C1` [Ticlopidine, reference compound], the “percentage of inhibition” value in test [1] (30 mg/kg) was 10.1 percentage.
